What was measured:
Assay type in all cases: in vivo
[1] = tested on: barnyardgrass (Echinochloa crus-galli); assay: Test B flooded paddy test; conditions: for Plant response rating, Flood, Barnyardgrass: 250 g ai/ha, flooded paddy test, visual rating on 0 to 100 scale (0 no effect, 100 complete control) after 13 to 15 days; for Plant response rating, Barnyardgrass: Flood (flooded paddy test), 13 to 15 days
How it was run: (§1)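 Visual scores run from 0 (no effect) to 100 (complete control), assigned by comparison with controls 13 to 15 days after treatment. Test compounds went straight into water standing 3 cm above the soil, around plants at the 2-leaf stage kept in a greenhouse.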

[2] = tested on: ducksalad (Heteranthera limosa); assay: Test B flooded paddy test; conditions: for Plant response rating, Flood, Ducksalad: 250 g ai/ha, flooded paddy test, visual rating on 0 to 100 scale (0 no effect, 100 complete control) after 13 to 15 days; for Plant response rating, Ducksalad: Flood (flooded paddy test), 13 to 15 days
How it was run: as §1

rice (Oryza sativa) = assay: Test B flooded paddy test; conditions: for Plant response rating, Flood, Rice: 250 g ai/ha, flooded paddy test, visual rating on 0 to 100 scale (0 no effect, 100 complete control) after 13 to 15 days; for Plant response rating, Rice: Flood (flooded paddy test), 13 to 15 days
How it was run: as §1

[3] = tested on: umbrella sedge (Cyperus difformis); assay: Test B flooded paddy test; conditions: for Plant response rating, Flood, Sedge, Umbrella: 250 g ai/ha, flooded paddy test, visual rating on 0 to 100 scale (0 no effect, 100 complete control) after 13 to 15 days; for Plant response rating, Sedge, Umbrella: Flood (flooded paddy test), 13 to 15 days
How it was run: as §1

[4] = tested on: winter barley (Hordeum vulgare); assay: Test B postemergence plant response; conditions: for Barley plant response rating (0 to 100 scale): 62 g ai/ha, 0 is no effect, 13 to 15 days
How it was run: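 Plants at the 1- to 4-leaf stage (2 to 18 cm tall), grown in pots of peat moss/vermiculite medium with wetting agent and starter nutrients, received postemergence applications of test chemicals. After 13 to 15 days in a greenhouse, injury was rated visually against untreated controls on a 0 (no effect) to 100 (complete control) scale.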

[5] = tested on: large crabgrass (Digitaria sanguinalis); assay: Test A pre-/postemergence plant response
How it was run: (§2)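 Each species was treated preemergence via directed soil spray and postemergence at the one- to two-leaf stage, with compounds formulated in a non-phytotoxic solvent plus surfactant. Visual injury relative to untreated controls was rated after about ten days on a 0–100 scale.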

[6] = tested on: giant foxtail (Setaria faberii); assay: Test A pre-/postemergence plant response
How it was run: as §2

[7] = tested on: pigweed (Amaranthus retroflexus); assay: Test A pre-/postemergence plant response
How it was run: as §2

[8] = tested on: barnyardgrass (Echinochloa crus-galli); assay: Test A pre-/postemergence plant response
How it was run: as §2

corn (Zea mays) = assay: Test A pre-/postemergence plant response
How it was run: as §2

[9] = tested on: morningglory (Ipomoea spp.); assay: Test A pre-/postemergence plant response
How it was run: as §2

[10] = tested on: velvetleaf (Abutilon theophrasti); assay: Test A pre-/postemergence plant response
How it was run: as §2

[11] = tested on: wheat (Triticum aestivum); assay: Test A pre-/postemergence plant response
How it was run: as §2

[12] = 62 g ai/ha, scale of 0 to 100 where 0 is no effect and 100 is complete control
[13] = 31 g ai/ha, postemergence, scale 0 to 100, 0 is no effect, 100 is complete control
[14] = postemergence, 100 is complete control
[15] = Postemergence, 125 g ai/ha, visual rating after 13 to 15 days, scale 0 (no effect) to 100 (complete control)
[16] = Postemergence, 250 g ai/ha, scale 0 to 100 (0 no effect, 100 complete control)
[17] = Postemergence, 125 g ai/ha, 0 to 100 scale where 0 is no effect and 100 is complete control
[18] = Postemergence, 500 g ai/ha, 0 to 100 scale, 0 = no effect, 100 = complete control, approx. ten days
[19] = Preemergence, 125 g ai/ha, 0 to 100 scale, 0 = no effect, 100 = complete control
[20] = Preemergence, 500 g ai/ha, visual injury, 0 to 100 scale (0 no effect, 100 complete control), approx. ten days
[21] = 125 g ai/ha, scale 0 to 100, 0 is no effect, 100 is complete control
[22] = Flood, 31 g ai/ha, scale 0 to 100 (0 no effect, 100 complete control)

CCCc1ncc(C(=O)C2=C(O)CCCC2=O)c(=O)n1CC1CCCO1 (stereo not shown) [Compound 74]
Plant response rating, Flood, Barnyardgrass [1]: 40 | Plant response rating, Barnyardgrass [1, 12]: 0 | Plant response rating, Flood, Ducksalad [2]: 0 | Plant response rating, Ducksalad [2, 12]: 0 | Plant response rating, Flood, Rice (rice (Oryza sativa)): 0 | Plant response rating, Rice (rice (Oryza sativa); [12]): 0 | Plant response rating, Flood, Sedge, Umbrella [3]: 60 | Plant response rating, Sedge, Umbrella [3, 12]: 30 | Plant response rating, Barley [4, 13]: 0 | Barley plant response rating (0 to 100 scale) [4, 14]: 0 | Plant response rating, Barley [4, 15]: 0 | Plant response rating, Barley [4, 16]: 0 | Plant response rating, Crabgrass, Large [5, 17]: 90 | Plant response rating, Crabgrass, Large [5, 18]: 90 | Plant response rating, Crabgrass, Large [5, 19]: 70 | Plant response rating, Crabgrass, Large [5, 20]: 90 | Plant response rating, Foxtail, Giant [6, 17]: 40 | Plant response rating, Foxtail, Giant [6, 18]: 80 | Plant response rating, Foxtail, Giant [6, 19]: 0 | Plant response rating, Foxtail, Giant [6, 20]: 40 | Plant response rating, Pigweed [7, 17]: 100 | Plant response rating, Pigweed [7, 18]: 100 | Plant response rating, Pigweed [7, 19]: 90 | Plant response rating, Pigweed [7, 20]: 100 | Plant response rating, Barnyardgrass [8, 17]: 80 | Plant response rating, Barnyardgrass [8, 18]: 90 | Plant response rating, Barnyardgrass [8, 19]: 30 | Plant response rating, Barnyardgrass [8, 20]: 60 | Plant response rating, Corn (corn (Zea mays); [17]): 0 | Plant response rating, Corn (corn (Zea mays); [18]): 20 | Plant response rating, Corn (corn (Zea mays); [19]): 0 | Plant response rating, Corn (corn (Zea mays); [20]): 0 | Plant response rating, Morningglory [9, 17]: 90 | Plant response rating, Morningglory [9, 18]: 100 | Plant response rating, Morningglory [9, 19]: 40 | Plant response rating, Morningglory [9, 20]: 60 | Plant response rating, Velvetleaf [10, 17]: 90 | Plant response rating, Velvetleaf [10, 18]: 100 | Plant response rating, Velvetleaf [10, 19]: 70 | Plant response rating, Velvetleaf [10, 20]: 90 | Plant response rating, Wheat [11, 17]: 0 | Plant response rating, Wheat [11, 18]: 20 | Plant response rating, Wheat [11, 19]: 0 | Plant response rating, Wheat [11, 20]: 0

CCCn1c(-c2cccs2)ncc(C(=O)C2=C(O)CCCC2=O)c1=O [Compound 77]
Plant response rating, Flood, Barnyardgrass [1]: 65 | Plant response rating, Barnyardgrass [1, 12]: 30 | Plant response rating, Flood, Ducksalad [2]: 40 | Plant response rating, Ducksalad [2, 12]: 30 | Plant response rating, Flood, Rice (rice (Oryza sativa)): 15 | Plant response rating, Rice (rice (Oryza sativa); [12]): 0 | Plant response rating, Flood, Sedge, Umbrella [3]: 40 | Plant response rating, Sedge, Umbrella [3, 12]: 40 | Plant response rating, Barley [4, 13]: 0 | Barley plant response rating (0 to 100 scale) [4, 14]: 0 | Plant response rating, Barley [4, 15]: 0 | Plant response rating, Barley [4, 16]: 0 | Plant response rating, Crabgrass, Large [5, 17]: 60 | Plant response rating, Crabgrass, Large [5, 18]: 80 | Plant response rating, Crabgrass, Large [5, 19]: 50 | Plant response rating, Crabgrass, Large [5, 20]: 90 | Plant response rating, Foxtail, Giant [6, 17]: 50 | Plant response rating, Foxtail, Giant [6, 18]: 70 | Plant response rating, Foxtail, Giant [6, 19]: 0 | Plant response rating, Foxtail, Giant [6, 20]: 20 | Plant response rating, Pigweed [7, 17]: 100 | Plant response rating, Pigweed [7, 18]: 100 | Plant response rating, Pigweed [7, 19]: 80 | Plant response rating, Pigweed [7, 20]: 90 | Plant response rating, Barnyardgrass [8, 17]: 80 | Plant response rating, Barnyardgrass [8, 18]: 90 | Plant response rating, Barnyardgrass [8, 19]: 20 | Plant response rating, Barnyardgrass [8, 20]: 50 | Plant response rating, Corn (corn (Zea mays); [17]): 0 | Plant response rating, Corn (corn (Zea mays); [18]): 20 | Plant response rating, Corn (corn (Zea mays); [19]): 0 | Plant response rating, Corn (corn (Zea mays); [20]): 0 | Plant response rating, Morningglory [9, 17]: 90 | Plant response rating, Morningglory [9, 18]: 100 | Plant response rating, Morningglory [9, 20]: 70 | Plant response rating, Velvetleaf [10, 17]: 100 | Plant response rating, Velvetleaf [10, 18]: 100 | Plant response rating, Velvetleaf [10, 19]: 70 | Plant response rating, Velvetleaf [10, 20]: 100 | Plant response rating, Wheat [11, 17]: 0 | Plant response rating, Wheat [11, 18]: 0 | Plant response rating, Wheat [11, 19]: 0 | Plant response rating, Wheat [11, 20]: 0

Cc1ccc(-c2ncc(C(=O)C3=C(O)CCCC3=O)c(=O)n2-c2ccccc2)cc1 [Compound 80]
Plant response rating, Flood, Barnyardgrass [1]: 30 | Plant response rating, Barnyardgrass [1, 12]: 20 | Plant response rating, Barnyardgrass [1, 21]: 25 | Barnyardgrass plant response rating [1, 22]: 15 | Plant response rating, Flood, Ducksalad [2]: 30 | Plant response rating, Ducksalad [2, 12]: 20 | Plant response rating, Ducksalad [2, 21]: 30 | Ducksalad plant response rating [2, 22]: 0 | Plant response rating, Flood, Rice (rice (Oryza sativa)): 15 | Plant response rating, Rice (rice (Oryza sativa); [12]): 0 | Plant response rating, Rice (rice (Oryza sativa); [21]): 0 | Rice plant response rating (rice (Oryza sativa); [22]): 0 | Plant response rating, Flood, Sedge, Umbrella [3]: 40 | Plant response rating, Sedge, Umbrella [3, 12]: 20 | Plant response rating, Sedge, Umbrella [3, 21]: 30 | Sedge, Umbrella plant response rating [3, 22]: 0 | Plant response rating, Barley [4, 13]: 15 | Barley plant response rating (0 to 100 scale) [4, 14]: 30 | Plant response rating, Barley [4, 15]: 30 | Plant response rating, Barley [4, 16]: 75 | Plant response rating, Crabgrass, Large [5, 17]: 70 | Plant response rating, Crabgrass, Large [5, 18]: 90 | Plant response rating, Crabgrass, Large [5, 19]: 50 | Plant response rating, Crabgrass, Large [5, 20]: 90 | Plant response rating, Foxtail, Giant [6, 17]: 70 | Plant response rating, Foxtail, Giant [6, 18]: 90 | Plant response rating, Foxtail, Giant [6, 19]: 10 | Plant response rating, Foxtail, Giant [6, 20]: 60 | Plant response rating, Pigweed [7, 17]: 100 | Plant response rating, Pigweed [7, 18]: 100 | Plant response rating, Pigweed [7, 19]: 60 | Plant response rating, Pigweed [7, 20]: 90 | Plant response rating, Barnyardgrass [8, 17]: 30 | Plant response rating, Barnyardgrass [8, 18]: 80 | Plant response rating, Barnyardgrass [8, 19]: 0 | Plant response rating, Barnyardgrass [8, 20]: 10 | Plant response rating, Corn (corn (Zea mays); [17]): 0 | Plant response rating, Corn (corn (Zea mays); [18]): 50 | Plant response rating, Corn (corn (Zea mays); [19]): 0 | Plant response rating, Corn (corn (Zea mays); [20]): 0 | Plant response rating, Morningglory [9, 17]: 100 | Plant response rating, Morningglory [9, 18]: 100 | Plant response rating, Morningglory [9, 19]: 0 | Plant response rating, Morningglory [9, 20]: 30 | Plant response rating, Velvetleaf [10, 17]: 100 | Plant response rating, Velvetleaf [10, 18]: 100 | Plant response rating, Velvetleaf [10, 19]: 50 | Plant response rating, Velvetleaf [10, 20]: 100 | Plant response rating, Wheat [11, 17]: 0 | Plant response rating, Wheat [11, 18]: 0 | Plant response rating, Wheat [11, 19]: 0 | Plant response rating, Wheat [11, 20]: 0
